Measurements taken from patent US20250195612A1, “Coversin for use in the treatment of rheumatic diseases” (Volution Immuno Pharmaceuticals SA, priority 2018, published 2025).
pKd: −log10 of the molar value.

Columns and labels:
[1] = test system: K/BxN serum-transfer arthritis in C57BL/6 mice; test: K/BxN serum transfer arthritis model, prophylactic (Example 1); format: in vivo, mouse (C57BL/6); conditions: 50 mg/kg orally once daily, day 0 to day 14
Text: The K/BxN serum-transfer arthritis model was used to test whether development of arthritis could be prevented by Coversin. This model is a well-known murine model in which the immunological mechanisms occurring in rheumatoid arthritis (RA) are induced by transferring serum from arthritic transgenic K/BxN mice to naive mice. In the absence of treatment arthritic symptoms occur a few days later. This model is recognised to be highly relevant for RA, especially for the preclinical screening of new therapeutic targets for RA and perhaps other forms of inflammatory arthritis.
(§1) Experimental RA was induced using the protocol described by. Five mice were tested in each treatment group.
(§2) On day 0 C57BL/6 mice were assessed for clinical score and paw thickness using standard protocols. All mice received an injection of K/BxN serum on day 0 and on day 2. Each treatment was administered every day from day 0 to day 14. On days where serum was also injected (day 0 and day 2) drug was administered immediately after the serum injection. Clinical score and paw thickness were measured every other day.
Treatment groups were as follows: • Group 1: PBS (vehicle, subcutaneous, q24h) • Group 2: Treatment (Coversin 5 mg/kg subcutaneous, q12h) • Group 3: Treatment (Zileuton 50 mg/kg orally once daily) • Group 4: Treatment (PAS-Coversin 20 mg/kg subcutaneous, once daily)

[2] = test system: K/BxN serum-transfer arthritis in C57BL/6 mice; test: K/BxN serum transfer arthritis model, treatment of established disease (Example 2); format: in vivo, mouse (C57BL/6); conditions: 50 mg/kg orally once daily, day 4 to day 14
Experimental: The K/BxN serum-transfer arthritis (STA) model was used to test whether established arthritic disease could be ameliorated by Coversin.
as §1
as §2, with “day 2. The treatment was” for “day 2. Each treatment was”, “from day 4 to day” for “from day 0 to day”
Treatment groups were as follows: • Group 1: PBS (vehicle) • Group 2: Treatment (PAS-L Coversin 20 mg/kg subcutaneous once daily) • Group 3: Treatment (Zileuton 50 mg/kg orally once daily) • Group 4: Treatment (PAS-Coversin 20 mg/kg subcutaneous once daily)

Human BLT1 = conditions: high affinity receptor; ref. [12]; cited from earlier work
Human BLT2 = conditions: cited from earlier work

Q: Which results are given for `CC(c1cc2ccccc2s1)N(O)C(N)=O` (centres unmarked) [Zileuton, N-[1-(1-benzothien-2-yl)ethyl]-N-hydroxyurea]?
A: development of arthritis [1]: partially ameliorates the development of arthritis; day of maximum clinical score [2]: 6 days

Q: With `CCCCC/C=C\C[C@@H](O)/C=C/C=C/C=C\[C@@H](O)CCCC(=O)O` [LTB4, Leukotriene B4] as the molecule, how does the pKd (Human BLT1) read?
A: 8.82 to 9.41

Q: And the “lower affinity for LTB4 than BLT1” value (Human BLT2; BLT2 compared with BLT1)?
A: 20 fold

Q: And the pKd (Human BLT2; human BLT2)?
A: 7.64
